# Data from publication PMC11385693, “Synthesis of ferrocenyl benzimidazole derivatives as novel anti-Toxoplasma gondii agents” (New Journal of Chemistry, 2024).
# Columns and labels:
# [1] = Aqueous stability studies (UV-vis monitoring, ESI-MS follow-up); assay type: physicochemical; conditions: PBS pH 7.4, HEPES pH 7.0 and acetate buffer pH 4.6; 37 °C, 18 hours, 50 μM
# Method: The stability of complexes 14–17 in an aqueous environment was investigated. The stability experiments were performed in PBS (pH 7.4) and HEPES (pH 7.0) buffers, as well as in acidic acetate buffer (pH 4.6), by monitoring the UV-vis spectra of the compounds at 37 °C over an 18-hour period.
# To further investigate the stability of 14, the PBS, HEPES and acetate buffer solutions were evaporated to dryness, and then analysed using electrospray ionisation mass spectrometry in the positive ionisation mode.
# PBS and HEPES buffers were prepared as described above. An acetate buffer with a concentration of […] and a pH of 4.60 was prepared by dissolving 5.40 g (65.83 mmol) of sodium acetate in 50 mL of dH2O. The resulting solution was then titrated to a pH of 4.60 with glacial acetic acid and made up to 100 mL with dH2O.
# 1 mM stock solutions of the synthesised target compounds in MeOH were prepared. 1.90 mL of buffer (PBS, HEPES or acetate buffer) was pipetted into cuvettes followed by the addition 100 μL of test compound stock solutions, diluting them to a final concentration of 50 μM. The cuvettes were then stoppered, inverted to mix the solution, and placed in an Agilent Cary 3500 UV-vis spectrophotometer as fast as possible. Blank solutions in matched cuvettes were also prepared by adding 100 μL of MeOH to 1.9 mL of buffer. The solutions in all the cuvettes were stirred at 400 rpm ensure proper mixing. UV spectra were then recoded every 5 minutes for 18 hours with a spectral width of 200–1100 nm to monitor the stability of the test compounds.
# Cyclic voltammetry = assay type: physicochemical
# Text: Ferrocene is known to undergo reversible oxidation and reduction, cycling between its 3^+ ferrocenium and the 2^+ ferrocene (Fc) states.[49,50] This redox behaviour leads to the generation of reactive oxygen species (ROS) through Fenton like reactions, which can in turn lead to parasite death.[51–53] Cyclic voltammetry was used to determine if the synthesised ferrocenyl derivatives had the potential to have an impact on the redox status of the parasite cells. Two different scan rates (25 and 90 mV s^−1) were used to ensure the reliability of the results, compared to ferrocene alone.
# [2] = system: RhΔKu80:mNeonGreen strain of T. gondii; assay: microbe, parasite or virus in culture; assay type: cell-based, Toxoplasma gondii; conditions: T. gondii ΔKu80:mNeon in HFFs, 4 days, highest concentration 100 μM; NA = not active at the maximum tested concentration; three biological replicates in triplicate; read-out: EC50
# Method: Growth inhibition assays were carried out using the RhΔKu80:mNeonGreen strain of T. gondii, which expresses the mNeonGreen fluorescent protein.[56] Parasite growth inhibition was determined by measuring the fluorescence emission of parasite growth in increasing concentrations of compounds of interest.
# T. gondii ΔKu80:mNeon tachyzoites were grown in human foreskin fibroblasts (HFFs) with Dulbecco's modified Eagle's medium (DMEM) supplemented with 3% heat inactivated foetal bovine serum (D3) as the culturing medium. Cells and parasites were maintained at 37 °C and 5% carbon dioxide (CO2).
# EC50s were calculated as previously described.[56] Briefly, T. gondii ΔKu80:mNeon parasites were counted by haemocytometer and diluted to 25 000 parasites per mL in 40 mL of D3 media, to give an infection of 5000 parasites per well. The media from a black clear bottomed 96 well plate containing HFFs was then aspirated. 200 μL of uninfected D3 media was added to the top and bottom rows of wells (A and H) to serve as blanks. 200 μL of T. gondii containing D3 media was then added to the remaining wells. The parasites were allowed 2 hours to invade host cells, after which test compounds were added.
# The media from the infected 96 well plates was then aspirated and 100 μL of D3 media added to each well, excluding column 12. The first 4 wells of column 12 were filled with 300 μL of drug supplemented D3 media, while the next 4 wells were filled with 300 μL of D3 media supplemented with a different drug. The drug supplemented D3 media was then serially diluted 1 : 3 across the plate, stopping at column 2 and disposing of the media, leaving all wells with 100 μL of media. Finally, the plates were closed and incubated at 37 °C with 5% CO2 for 4 days. After 4 days the fluorescence of each well on the plates was read at 594 nm emission using a PHERAstar FS microplate reader. Graphpad Prism 9 software was used to plot dose–response and determine inhibition of parasite growth.
# T. gondii parasites = assay: Determination of ROS formation by FACS (CellROX deep red); assay type: cell-based, Toxoplasma gondii; conditions: 66 μM, 18 hours, compared with untreated parasites
# Method: Once it had been established that two of the synthesised ferrocenyl benzimidazole derivatives were biologically active, their potential mode of action was explored. Given the presence of the ferrocenyl moiety, and the cyclic voltammetry results, it was of interest to investigate whether the compounds induce ROS, which may provide an explanation for their anti-parasitic activity. Thus, cells heavily infected with parasites were incubated with target compounds for 18 hours, before isolating the parasites and staining them with CellRox deep red reagent. CellRox is an oxidation sensitive dye which is non-fluorescent in its reduced state but fluoresces bright red at 665 nm upon being oxidised by ROS. FACS was then used to quantify CellROX parasite florescence.[56] Parasites were incubated with ferrocene carboxylic acid (FcCOOH), and untreated parasites were used as controls.
# 6 cm dishes of host cells heavily infected with T. gondii were untreated or treated with 66 μM (second highest concentration used in growth inhibition assays) of test compounds for 18 hours. The dishes were then scratched and syringed, before filtering the solution into 10 mL falcon tubes to remove cell debris. The tubes were spun down for 10 minutes at 1500 rpm. The media was then removed from the tubes, and the pellet resuspended in 200 μL of PBS buffer. For each drug, 100 μL of the resuspended pellet was then placed into 2 FACS tubes, one which would then be stained with CellROX dye, and the other 100 μL of PBS added to act as an unstained control. A 1 : 125 dilution of CellROX stock solution was performed, and 100 μL of this solution added to the FACS tubes needing staining. Stained tubes were incubated at 37 °C for at least 15 min before analysis on a BD Celesta flow cytometer. Data was obtained using FACSDiva software with parasites being gated on forward scatter, side scatter and green fluorescence. FlowJo v10 software was used to plot the geometric mean of CellRox fluorescence from at least 5000 parasites on the Cy7 channel.
# HEK293T cell line = conditions: 25 μM, MTT 48 hours
# Method: Human prostatic epithelial cells (PNT1A) were cultured in Rosewell Park Memorial Institute (RPMI) media supplemented with 10% heat inactivated FBS. Both cell lines were incubated at 37 °C with 5% CO2. Both cell lines were obtained from ATCC.
# The cells were allowed to recover overnight before the addition of compounds.
# Stock solutions of the test compounds in DMSO were prepared and serially diluted in DMSO in a 96 well plate. […] 10 μL of the test compounds in media was then pipetted into the plates containing cells in triplicate. The cells were then incubated with the test compounds for 48 hours. After incubation, 10 μL of previously prepared MTT reagent was added to each well followed by incubation of the plates for 4 hours. 100 μL of solubilising agent was then pipetted into each well, and the plates incubated overnight. After overnight incubation the plates were read using a BioTek SYNERGY HTX multimode plate reader at 595 nm. Graphpad Prism 9 software was used to plot dose–response and determine cell viability.
compound,measurement,setting,value
O=C(NCCn1cnc2cccnc21)[c-]1cccc1.[Fe+2].c1cc[cH-]c1 [Compound 17],Change of UV-vis spectrum over time (aqueous stability),[1],remained unchanged
same,E 1/2,"Cyclic voltammetry; Run1, scan rate 25 mV s^−1",620 mV
same,ΔEp,"Cyclic voltammetry; Run1, scan rate 25 mV s^−1",79 mV
same,E 1/2,"Cyclic voltammetry; Run2, scan rate 90 mV s^−1",618 mV
same,ΔEp,"Cyclic voltammetry; Run2, scan rate 90 mV s^−1",68 mV
same,EC50,[2],17.5 µM
same,ROS formation in treated parasites (CellRox red fluorescence),T. gondii parasites,triggered the formation of ROS
same,Cell survival / % cell viability,HEK293T cell line,70%
